# Tests used:
# [1] = target: T1, human orexin 2 receptor (Homo sapiens, UniProt O43614); assay: Radioligand binding assay ([3H]-SB649868 competition), human orexin 2 receptor; details: radioligand [3H]-SB649868; read-out: Binding hOx2R Kd
# T1 construct: expressed in transfected cells
# T1 sequence (O43614 1-444): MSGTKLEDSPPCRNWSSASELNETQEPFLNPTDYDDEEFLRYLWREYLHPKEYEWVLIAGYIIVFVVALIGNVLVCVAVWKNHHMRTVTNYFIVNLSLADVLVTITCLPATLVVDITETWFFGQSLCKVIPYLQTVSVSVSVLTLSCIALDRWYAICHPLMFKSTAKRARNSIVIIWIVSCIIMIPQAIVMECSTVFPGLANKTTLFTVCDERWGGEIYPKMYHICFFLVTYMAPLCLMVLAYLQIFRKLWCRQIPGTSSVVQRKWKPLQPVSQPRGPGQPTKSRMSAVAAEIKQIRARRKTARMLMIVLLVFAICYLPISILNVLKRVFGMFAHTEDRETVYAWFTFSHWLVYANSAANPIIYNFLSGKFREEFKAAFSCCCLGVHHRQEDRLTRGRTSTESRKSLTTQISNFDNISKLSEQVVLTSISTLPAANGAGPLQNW
# Protocol: (§1) Radioligand Binding Assay
# (§2) For crude cell membrane preparations, cells (CHO, Chinese hamster ovary or HEK, human embryonic kidney) expressing human orexin 1 or human orexin 2 receptors, were washed with HEPES (10 mM, pH 7.5), scraped off the culture plates with the same buffer, and centrifuged at 4° C. for 5 min at 2500×g. The cell pellet was either stored at −80° C. or used directly. Before the experiments, cell membranes were re-suspended in binding assay buffer (10 mM HEPES, 0.5% (w/v) bovine serum albumin, pH 7.5) by homogenisation with a Polytron homogeniser at 50 Hz for 20 s. Cell membranes were also used as made available by commercial providers.
# (§3) Bound radioactivity was measured, and data were analysed with the program XLFIT or Graphpad Prism. Protein concentration was determined according to the Bradford/BioRad Protein Assay Kit.
# (§4) In competition experiments, cell homogenates (150 μl) were incubated in assay buffer (10 mM HEPES, pH 7.5, 0.5% (w/v) bovine serum albumin, 5 mM MgCl2, 1 mMCaCl2, and tween 0.05%) for 1 h at room temperature with about 1 nM of the radioligand [^3H]-SB649868, 66 Ci/mmole, 50 μl), and with various concentrations of compounds of the invention (50 μl) in triplicates; non-specific binding was determined in the presence of almorexant (10 μM). Reactions were terminated by vacuum filtration, 3 washes of ice cold wash buffer (Tris-HCl pH 7.4/10 mM, with NaCl 154 mM). Competition data is expressed in Table 1 as Kd [μM].
# [2] = target: T2, human orexin 1 receptor (Homo sapiens, UniProt O43613); assay: Calcium accumulation in cells (FLIPR), antagonism of orexin A, human orexin 1 receptor; type: cell-based; details: calcium accumulation, antagonism of orexin A, Cheng-Prusoff corrected; read-out: FLIPR hOx1R Ki
# T2 construct: expressed in transfected cells
# T2 sequence (O43613 1-425): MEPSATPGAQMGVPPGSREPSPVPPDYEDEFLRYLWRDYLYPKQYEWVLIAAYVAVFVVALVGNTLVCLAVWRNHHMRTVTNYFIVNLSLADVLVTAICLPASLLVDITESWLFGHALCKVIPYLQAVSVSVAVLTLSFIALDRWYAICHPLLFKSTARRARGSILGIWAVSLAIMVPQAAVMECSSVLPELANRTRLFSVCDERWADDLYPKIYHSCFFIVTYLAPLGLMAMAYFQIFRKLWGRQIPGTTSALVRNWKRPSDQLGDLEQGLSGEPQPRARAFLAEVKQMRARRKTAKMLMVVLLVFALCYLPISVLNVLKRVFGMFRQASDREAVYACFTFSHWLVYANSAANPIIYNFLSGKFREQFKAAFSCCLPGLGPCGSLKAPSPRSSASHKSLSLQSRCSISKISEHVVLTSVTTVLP
# [3] = target: T1, human orexin 2 receptor; assay: Calcium accumulation in cells (FLIPR), antagonism of orexin A, human orexin 2 receptor; type: cell-based; details: calcium accumulation, antagonism of orexin A, Cheng-Prusoff corrected; read-out: FLIPR hOx2R Ki
# [4] = target: T2, human orexin 1 receptor; assay: Radioligand binding assay ([3H]-SB649868 competition), human orexin 1 receptor; details: radioligand [3H]-SB649868; read-out: Binding hOx1R Kd
# Protocol: as §1, §2, §3, §4
SMILES,Kd [1] [nM],Ki [2] [nM],Ki [3] [nM],Kd [4] [nM]
"Cc1cc(C)nc(N2CCC3(CC2)NCCN(Cc2nn(C)cc2-c2cccc(OC(F)(F)F)c2)C3=O)n1 [Example 1.46, 9-(4,6-Dimethyl-pyrimidin-2-yl)-4-((1-methyl-4-(3-(trifluoro-methoxy)phenyl)-1H-pyrazol-3-yl)methyl)-1,4,9-triazaspiro[5.5] undecan-5-one]",91,2040,5,3880
"Cc1cc(C)nc(N2CCC3(CC2)NCCN(Cc2nn(C)cc2-c2cccc(OC(C)C)c2)C3=O)n1 [Example 1.47, 9-(4,6-Dimethyl-pyrimidin-2-yl)-4-((4-(3-iso-propoxyphenyl)-1-methyl-1H-pyrazol-3-yl)methyl)-1,4,9-triazaspiro[5.5] undecan-5-one]",7,135,1,187
"CC(=O)c1cccc(-c2cn(C)nc2CN2CCNC3(CCN(c4nc(C)cc(C)n4)CC3)C2=O)c1 [Example 1.48, 4-((4-(3-Acetylphenyl)-1-methyl-1H-pyrazol-3-yl)methyl)-9-(4,6-dimethyl-pyrimidin-2-yl)-1,4,9-triazaspiro[5.5] undecan-5-one]",99,2740,12,2270
"Cc1cc(C)nc(N2CCC3(CC2)NCCN(Cc2nn(C)cc2-c2cccc(OCC4CC4)c2)C3=O)n1 [Example 1.52, 4-((4-(3-(Cyclo-propylmethoxy)phenyl)-1-methyl-1H-pyrazol-3-yl)methyl)-9-(4,6-dimethylpyrimidin-2-yl)-1,4,9-triazaspiro[5.5] undecan-5-one]",50,286,2.8,436
"Cc1cc(C)nc(N2CCC3(CC2)NCCN(Cc2nn(C)cc2-c2cccc(OCC(C)C)c2)C3=O)n1 [Example 1.53, 9-(4,6-Dimethyl-pyrimidin-2-yl)-4-((4-(3-isobutoxyphenyl)-1-methyl-1H-pyrazol-3-yl)methyl)-1,4,9-triazaspiro[5.5] undecan-5-one]",45,331,7,319
"COc1ccc2[nH]nc(CN3CCNC4(CCN(c5nc(C)cc(C)n5)CC4)C3=O)c2c1 [Example 1.56, 9-(4,6-Dimethyl-pyrimidin-2-yl)-4-((5-methoxy-1H-indazol-3-yl)methyl)-1,4,9-triazaspiro[5.5] undecan-5-one]",11,594,2.7,492
"Cc1cc(C)nc(N2CCC3(CC2)NCCN(Cc2nn(C)cc2-c2cccc(OC4CC4)c2)C3=O)n1 [Example 1.62, 4-((4-(3-Cyclo-propoxyphenyl)-1-methyl-1H-pyrazol-3-yl)methyl)-9-(4,6-dimethyl-pyrimidin-2-yl)-1,4,9-triazaspiro[5.5] undecan-5-one]",8,163,1,142
"COc1cc(C)nc(N2CCC3(CC2)NCCN(Cc2n[nH]c4ccccc24)C3=O)n1 [Example 1.65, 4-((1H-indazol-3-yl)methyl)-9-(4-methoxy-6-methyl-pyrimidin-2-yl)-1,4,9-triazaspiro[5.5] undecan-5-one]",58,1580,21,1160
"CCc1cccc(-c2cn(C)nc2CN2CCNC3(CCN(c4nc(C)cc(C)n4)CC3)C2=O)c1 [Example 1.67, 9-(4,6-dimethyl-pyrimidin-2-yl)-4-((4-(3-ethyl-phenyl)-1-methyl-1H-pyrazol-3-yl)methyl)-1,4,9-triazaspiro[5.5] undecan-5-one]",50,1140,5,1770
"Cc1cc(C)nc(N2CCC3(CC2)NCCN(Cc2nn(C)cc2-c2cccc(C(C)C)c2)C3=O)n1 [Example 1.68, 9-(4,6-dimethyl-pyrimidin-2-yl)-4-((4-(3-isopropyl-phenyl)-1-methyl-1H-pyrazol-3-yl)methyl)-1,4,9-triazaspiro[5.5] undecan-5-one]",13,945,4,1440
"CCC(=O)c1cccc(-c2cn(C)nc2CN2CCNC3(CCN(c4nc(C)cc(C)n4)CC3)C2=O)c1 [Example 1.70, 9-(4,6-dimethyl-pyrimidin-2-yl)-4-((1-methyl-4-(3-propionylphenyl)-1H-pyrazol-3-yl)methyl)-1,4,9-triazaspiro[5.5] undecan-5-one]",21,856,2,465
"Cc1cc(C)nc(N2CCC3(CC2)NCCN(Cc2nn(C)cc2-c2cccc(C(F)F)c2)C3=O)n1 [Example 1.71, 4-((4-(3-(difluoromethyl)phenyl)-1-methyl-1H-pyrazol-3-yl)methyl)-9-(4,6-dimethylpyrimidin-2-yl)-1,4,9-triazaspiro[5.5] undecan-5-one]",227,2060,30,1700
"Cc1cc(C)nc(N2CCC3(CC2)NCCN(Cc2nn(C)cc2-c2cccc(OCCOC(C)C)c2)C3=O)n1 [Example 1.72, 9-(4,6-dimethyl-pyrimidin-2-yl)-4-((4-(3-(2-iso-propoxyethoxy)phenyl)-1-methyl-1H-pyrazol-3-yl)methyl)-1,4,9-triazaspiro[5.5] undecan-5-one]",203,1590,49,846
"Cc1cc(C)nc(N2CCC3(CC2)NCCN(Cc2nn(C)cc2-c2cccc(N4CCOCC4)c2)C3=O)n1 [Example 1.73, 9-(4,6-dimethyl-pyrimidin-2-yl)-4-((1-methyl-4-(3-morpholinophenyl)-1H-pyrazol-3-yl)methyl)-1,4,9-triazaspiro[5.5] undecan-5-one]",163,862,20,1380
"COc1cc(-c2nn(C)nc2CN2CCNC3(CCN(c4nc(C)cc(C)n4)CC3)C2=O)ccn1 [Example 1.74, 9-(4,6-dimethyl-pyrimidin-2-yl)-4-((5-(2-methoxy-pyridin-4-yl)-2-methyl-2H-1,2,3-triazol-4-yl)methyl)-1,4,9-triazaspiro[5.5] undecan-5-one]",127,4270,48,2500
Cc1cc(C)nc(N2CCC3(CC2)NCCN(Cc2nn(C)nc2-c2cccc(N4CCOCC4)c2)C3=O)n1 [Example 1.77],225,2880,56,2840
"COCCOc1cccc(-c2nn(C)nc2CN2CCNC3(CCN(c4nc(C)cc(C)n4)CC3)C2=O)c1 [Example 1.78, 9-(4,6-dimethyl-pyrimidin-2-yl)-4-((5-(3-(2-methoxyethoxy)phenyl)-2-methyl-2H-1,2,3-triazol-4-yl)methyl)-1,4,9-triazaspiro[5.5] undecan-5-one]",28,1870,9,709
"Cc1cc(C)nc(N2CCC3(CC2)NCCN(Cc2nn(C)nc2-c2cccc(OC(C)C)c2)C3=O)n1 [Example 1.79, 9-(4,6-dimethyl-pyrimidin-2-yl)-4-((5-(3-isopropoxy-phenyl)-2-methyl-2H-1,2,3-triazol-4-yl)methyl)-1,4,9-triazaspiro[5.5] undecan-5-one]",22,166,3.7,535
